Here are results for two molecules from patent EP0397567A1, “Antitumor substance, process for its preparation and pharmaceutical compositions containing it” (RHONE-POULENC SANTE, priority 1989, dated 1990).

The experiment in a line: antitumor properties (studies mentioned, no method described). As to conditions: qualitative statement compared with girolline; no test system, dose or model printed.

In the case of `NC[C@@H](Cl)[C@H](O)c1c[nH]c(N)n1` (racemic) [racémique thréo, amino-3 (amino-2 1H-imidazolyl-4)-1 chloro-2 propanol-1-(1RS,2RS)], the propriétés antitumorales result is recorded as “conserve les propriétés antitumorales remarquables de la girolline”.

For `NC[C@H](Cl)[C@H](O)c1c[nH]c(N)n1` (racemic) [racémique érythro], the propriétés antitumorales entry is on record as “totalement inactifs”.
